According to PubChem BioAssay AID248 (DTP/NCI, 2004):
Toxic doses and inconclusive results are not listed. No stated cut-off is given here; in the data, active means T/C of 150% or more; inactive means T/C below 125%.

Tested on: L1210 leukemia ip in BDF1 mice, survival T/C
Assay: NCI In Vivo Anticancer Drug Screen. Data for tumor model L1210 Leukemia (intraperitoneal) in B6D2F1 (BDF1) mice
Details: endpoint: mean survival time, higher = longer survival
Procedure, shortened: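 Ratio derived from survival: compound-dosed mice over vehicle-dosed mice, all bearing a transplantable tumor.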

[1] = dose: 100.0 mg/kg/injection, schedule: Q01DX009 (ip), vehicle: Klucel (hydroxypropylcellulose) (HPC)
[2] = dose: 100.0 mg/kg/injection, schedule: Q04DX003 (ip), vehicle: saline
[3] = dose: 200.0 mg/kg/injection, schedule: Q01DX009 (ip), vehicle: Klucel (hydroxypropylcellulose) (HPC)
[4] = dose: 200.0 mg/kg/injection, schedule: Q04DX003 (ip), vehicle: saline
[5] = dose: 400.0 mg/kg/injection, schedule: Q01DX009 (ip), vehicle: Klucel (hydroxypropylcellulose) (HPC)
[6] = dose: 400.0 mg/kg/injection, schedule: Q04DX003 (ip), vehicle: saline
[7] = dose: 50.0 mg/kg/injection, schedule: Q01DX009 (ip), vehicle: saline with Tween-80
[8] = dose: 100.0 mg/kg/injection, schedule: Q01DX001 (ip), vehicle: saline with Tween-80
[9] = dose: 100.0 mg/kg/injection, schedule: Q01DX009 (ip), vehicle: saline with Tween-80
[10] = dose: 100.0 mg/kg/injection, schedule: Q04DX003 (ip), vehicle: saline with Tween-80
[11] = dose: 200.0 mg/kg/injection, schedule: Q01DX009 (ip), vehicle: saline with Tween-80
[12] = dose: 100.0 mg/kg/injection, schedule: Q04DX003 (ip), vehicle: Klucel (hydroxypropylcellulose) (HPC)
[13] = dose: 200.0 mg/kg/injection, schedule: Q04DX003 (ip), vehicle: Klucel (hydroxypropylcellulose) (HPC)
[14] = dose: 400.0 mg/kg/injection, schedule: Q04DX003 (ip), vehicle: Klucel (hydroxypropylcellulose) (HPC)

Measured: T/C

CC(C)C(O)(C(=O)NN)C(=O)NN
inactive: [1] 100 % of control | [2] 105 % of control | [3] 90 % of control | [4] 96 % of control | [5] 93 % of control | [6] 103 % of control

Cc1noc(/N=C/c2cccc(Cl)c2)c1C
inactive: dose: 100.0 mg/kg/injection, schedule: Q01DX001 (ip), vehicle: saline 101 % of control | dose: 200.0 mg/kg/injection, schedule: Q01DX001 (ip), vehicle: saline 105 % of control | dose: 400.0 mg/kg/injection, schedule: Q01DX001 (ip), vehicle: saline 101 % of control

CN(C(=O)CCCc1ccc(N(CCCl)CCCl)cc1)c1ccccc1
inactive: dose: 2.0 mg/kg/injection, schedule: Q12HX018 (ip), vehicle: Klucel (hydroxypropylcellulose) (HPC) 100 % of control | dose: 4.0 mg/kg/injection, schedule: Q12HX018 (ip), vehicle: Klucel (hydroxypropylcellulose) (HPC) 96 % of control | dose: 8.0 mg/kg/injection, schedule: Q12HX018 (ip), vehicle: Klucel (hydroxypropylcellulose) (HPC) 107 % of control | dose: 8.0 mg/kg/injection, schedule: Q12HX018 (ip), vehicle: other 110 % of control | dose: 10.0 mg/kg/injection, schedule: Q12HX018 (ip), vehicle: other 101 % of control | dose: 12.0 mg/kg/injection, schedule: Q12HX018 (ip), vehicle: other 100 % of control

O=C1c2ccccc2C(=O)N1C1CCC(O)CC1 (stereo unspecified)
inactive: dose: 25.0 mg/kg/injection, schedule: Q01DX009 (ip), vehicle: saline with Tween-80 101 % of control | dose: 25.0 mg/kg/injection, schedule: Q04DX003 (ip), vehicle: saline with Tween-80 107 % of control | [7] 93 % of control | dose: 50.0 mg/kg/injection, schedule: Q04DX003 (ip), vehicle: saline with Tween-80 102 % of control | [8] 103 % of control | [9] 103 % of control | [10] 102 % of control

O=C1c2ccccc2C(=O)c2c1cccc2S(=O)(=O)O
inactive: dose: 25.0 mg/kg/injection, schedule: Q01DX001 (ip), vehicle: saline with Tween-80 105 % of control | dose: 50.0 mg/kg/injection, schedule: Q01DX001 (ip), vehicle: saline with Tween-80 103 % of control | [8] 105 % of control

C[N+](C)(CCc1ccccc1)CC(O)COc1ccccc1 (stereo unspecified)
inactive: dose: 4.5 mg/kg/injection, schedule: Q01DX009 (ip), vehicle: Klucel (hydroxypropylcellulose) (HPC) 89 % of control | dose: 9.0 mg/kg/injection, schedule: Q01DX009 (ip), vehicle: Klucel (hydroxypropylcellulose) (HPC) 92 % of control | dose: 18.0 mg/kg/injection, schedule: Q01DX009 (ip), vehicle: Klucel (hydroxypropylcellulose) (HPC) 94 % of control | dose: 18.75 mg/kg/injection, schedule: Q04DX003 (ip), vehicle: Klucel (hydroxypropylcellulose) (HPC) 98 % of control

CN(C)c1ccc2[nH]c(=O)c3ccccc3c2c1
inactive: dose: 75.0 mg/kg/injection, schedule: Q01DX001 (ip), vehicle: carboxymethylcellulose (CMC) 101 % of control

O=S(=O)(c1ccccc1)N1CC1CBr (stereo unspecified)
inactive: dose: 100.0 mg/kg/injection, schedule: Q01DX001 (ip), vehicle: other 105 % of control | dose: 200.0 mg/kg/injection, schedule: Q01DX001 (ip), vehicle: other 100 % of control | dose: 400.0 mg/kg/injection, schedule: Q01DX001 (ip), vehicle: other 108 % of control

O=[N+]([O-])c1ccc(N/N=C(\CCc2ccccc2)c2ccccc2)c([N+](=O)[O-])c1
inactive: [7] 93 % of control | [9] 96 % of control | [11] 86 % of control

ON=C(c1ccccc1)c1ccccc1
inactive: [9] 101 % of control | [11] 105 % of control

COc1ccc(OC)c(-c2cc(-c3ccccc3)nc(-c3cccc([N+](=O)[O-])c3)c2)c1
inactive: dose: 100.0 mg/kg/injection, schedule: Q04DX002 (ip), vehicle: gum acacia 102 % of control | dose: 200.0 mg/kg/injection, schedule: Q04DX002 (ip), vehicle: gum acacia 97 % of control | dose: 400.0 mg/kg/injection, schedule: Q04DX002 (ip), vehicle: gum acacia 91 % of control

CN(C)C(=O)Sc1ccc(Cl)cc1S(=O)(=O)F
inactive: [1] 97 % of control | [3] 100 % of control | [5] 89 % of control

O=C1OCCN1N1C(=O)CC2(CCCCC2)C1=O
inactive: dose: 50.0 mg/kg/injection, schedule: Q01DX001 (ip), vehicle: Klucel (hydroxypropylcellulose) (HPC) 100 % of control | dose: 100.0 mg/kg/injection, schedule: Q01DX001 (ip), vehicle: Klucel (hydroxypropylcellulose) (HPC) 107 % of control | dose: 200.0 mg/kg/injection, schedule: Q01DX001 (ip), vehicle: Klucel (hydroxypropylcellulose) (HPC) 97 % of control

C(#[C][Sb]([C]#Cc1ccccc1)[C]#Cc1ccccc1)c1ccccc1
inactive: [2] 98 % of control | [4] 106 % of control | [6] 102 % of control

COC(=O)c1cccc(F)c1C(=O)c1ccc2ccccc2c1
inactive: [12] 100 % of control | [13] 91 % of control | [14] 97 % of control

Cc1ccc([N+](=O)[O-])c(O)c1[N+](=O)[O-]
inactive: [1] 104 % of control | [12] 102 % of control | [3] 93 % of control | [13] 89 % of control | [14] 102 % of control

CN(C)C(=N)C(=N)N(C)C
inactive: dose: 100.0 mg/kg/injection, schedule: Q01DX009 (ip), vehicle: saline 96 % of control | [2] 98 % of control | dose: 200.0 mg/kg/injection, schedule: Q01DX009 (ip), vehicle: saline 88 % of control | [4] 100 % of control | dose: 400.0 mg/kg/injection, schedule: Q01DX009 (ip), vehicle: saline 94 % of control | [6] 93 % of control

ON1CCCC1
inactive: dose: 100.0 mg/kg/injection, schedule: Q01DX009 (ip), vehicle: water 95 % of control | dose: 100.0 mg/kg/injection, schedule: Q04DX003 (ip), vehicle: water 92 % of control | dose: 200.0 mg/kg/injection, schedule: Q01DX009 (ip), vehicle: water 101 % of control | dose: 200.0 mg/kg/injection, schedule: Q04DX003 (ip), vehicle: water 92 % of control | dose: 400.0 mg/kg/injection, schedule: Q04DX003 (ip), vehicle: water 92 % of control

CCOC(=O)c1cnc(NN)nc1NCc1ccccc1
inactive: [7] 93 % of control | [9] 89 % of control | [10] 87 % of control | [11] 98 % of control | dose: 200.0 mg/kg/injection, schedule: Q04DX003 (ip), vehicle: saline with Tween-80 96 % of control

N#Cc1nc2c(n(O)c1=N)CCC/C2=C\c1ccc(Cl)c(Cl)c1
inactive: dose: 100.0 mg/kg/injection, schedule: Q04DX002 (ip), vehicle: Klucel (hydroxypropylcellulose) (HPC) 99 % of control | dose: 200.0 mg/kg/injection, schedule: Q04DX002 (ip), vehicle: Klucel (hydroxypropylcellulose) (HPC) 89 % of control | dose: 400.0 mg/kg/injection, schedule: Q04DX002 (ip), vehicle: Klucel (hydroxypropylcellulose) (HPC) 92 % of control

c1ccc2c(c1)-c1ccccc1-2
inactive: dose: 50.0 mg/kg/injection, schedule: Q01DX001 (ip), vehicle: carboxymethylcellulose (CMC) 97 % of control | dose: 100.0 mg/kg/injection, schedule: Q01DX001 (ip), vehicle: carboxymethylcellulose (CMC) 97 % of control | dose: 200.0 mg/kg/injection, schedule: Q01DX001 (ip), vehicle: carboxymethylcellulose (CMC) 97 % of control | dose: 400.0 mg/kg/injection, schedule: Q01DX001 (ip), vehicle: carboxymethylcellulose (CMC) 103 % of control
